Numbers after ± are expanded uncertainties.
Details: Crystal; DTA

- Normal melting temperature: 337.43 ± 1 °C
SMILES: O=c1cc(-c2ccc(O)c(O)c2)oc2cc(O)cc(O)c12 [5,7,3',4'-tetrahydroxyflavone]

Source: the NIST ThermoML archive (doi:10.1021/je900381r)
